Assay results published in patent publication US6737383B1, “Herbicidal oxadiazolidines” (priority 1999, dated 2004).

Legend:
bedstraw = assay: Test B pre/postemergence bedstraw; format: in vivo, Galium aparine
Outline: (§1)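 Herbicidal effect was estimated by eye on a ten-point control scale after plants spent twelve to sixteen days in a greenhouse following soil or foliar treatment. Foliar sprays targeted plants at one to four leaves; all doses were formulated in a non-phytotoxic solvent with surfactant.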

blackgrass = assay: Test B pre/postemergence blackgrass; format: in vivo, Alopecurus myosuroides
Outline: as §1

surinam grass = assay: Test B pre/postemergence surinam grass; format: in vivo, Brachiaria decumbens
Outline: as §1

cocklebur = assay: Test B pre/postemergence cocklebur; format: in vivo, Xanthium strumarium
Outline: as §1

corn = assay: Test B pre/postemergence corn; format: in vivo, Zea mays
Outline: as §1

crabgrass = assay: Test B pre/postemergence crabgrass; format: in vivo, Digitaria sanguinalis
Outline: as §1

giant foxtail = assay: Test B pre/postemergence giant foxtail; format: in vivo, Setaria faberii
Outline: as §1

morningglory = assay: Test B pre/postemergence morningglory; format: in vivo, Ipomoea hederacea
Outline: as §1

pigweed = assay: Test B pre/postemergence pigweed; format: in vivo, Amaranthus retroflexus
Outline: as §1

rape = assay: Test B pre/postemergence rape; format: in vivo, Brassica napus
Outline: as §1

soybean = assay: Test B pre/postemergence soybean; format: in vivo, Glycine max
Outline: as §1

sugar beet = assay: Test B pre/postemergence sugar beet; format: in vivo, Beta vulgaris
Outline: as §1

velvetleaf = assay: Test B pre/postemergence velvetleaf; format: in vivo, Abutilon theophrasti
Outline: as §1

wheat = assay: Test B pre/postemergence wheat; format: in vivo, Triticum aestivum
Outline: as §1

wild oat = assay: Test B pre/postemergence wild oat; format: in vivo, Avena fatua
Outline: as §1

purple nutsedge = assay: Test B pre/postemergence purple nutsedge; format: in vivo, Cyperus rotundus
Outline: as §1

rice = assay: Test B flood test rice; format: in vivo, Oryza sativa
Outline: (§2)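 Plants were grown to the 2-leaf stage before treatment with test chemical, then held in a greenhouse for twelve to sixteen days. Injury was visually rated against untreated controls on a 0–10 scale, where 0 is no effect and 10 is complete control.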

smallflower flatsedge = assay: Test B flood test smallflower flatsedge; format: in vivo, Cyperus difformis
Outline: as §2

duck salad = assay: Test B flood test duck salad; format: in vivo, Heteranthera limosa
Outline: as §2

bamyardgrass = assay: Test B flood test barnyardgrass; format: in vivo, Echinochloa crus-galli
Outline: as §2

[1] = Postemergence, Rate 125 g/ha, scale of 0 to 10 where 0 is no effect and 10 is complete control
[2] = Rate 250 g/ha, Postemergence, scale 0 to 10, 0 is no effect, 10 is complete control
[3] = Rate 500 g/ha, Postemergence, scale 0 to 10, 0 is no effect, 10 is complete control
[4] = Postemergence, Rate 1000 g/ha, scale 0 to 10 (0 no effect, 10 complete control)
[5] = Preemergence, Rate 125 g/ha, scale of 0 to 10 where 0 is no effect and 10 is complete control
[6] = Preemergence, Rate 250 g/ha, scale 0 to 10 (0 no effect, 10 complete control)
[7] = Preemergence, Rate 500 g/ha, scale of 0 to 10 where 0 is no effect and 10 is complete control
[8] = Rate 1000 g/ha, Preemergence, scale 0 to 10 (0 no effect, 10 complete control)
[9] = Pre-emergence, Rate 1000 g/ha, scale 0 to 10 (0 no effect, 10 complete control)
[10] = Rate 125 g/ha, under heading Pre-emergence, flood test species, visual evaluation after twelve to sixteen days
[11] = Rate 250 g/ha, Pre-emergence (flood test species), scale 0 to 10, 0 is no effect, 10 is complete control
[12] = Rate 500 g/ha, Pre-emergence section of Table B, 0 to 10 scale (0 no effect, 10 complete control)
[13] = Preemergence, Rate 62 g/ha, scale of 0 to 10 where 0 is no effect and 10 is complete control
[14] = Preemergence, Rate 250 g/ha, scale 0 (no effect) to 10 (complete control)
[15] = Pre-emergence, Rate 62 g/ha, scale 0 to 10, 0 is no effect, 10 is complete control
[16] = Rate 125 g/ha, Pre-emergence section (flood test species), scale 0 to 10, 0 no effect, 10 complete control

COC(=O)C(CCO)n1c(=O)on(C(=O)N(c2ccc(Cl)cc2)C(C)C)c1=O (centres unmarked) [Compound 679]
3: Plant response rating, Crabgrass (crabgrass; [8])
6: Plant response rating, Redroot pigweed (pigweed; [8])
8: Plant response rating, Giant foxtail (giant foxtail; [7]) | Plant response rating, Giant foxtail (giant foxtail; [8])
2: Plant response rating, Corn (corn; [8]) | Crabgrass plant response rating (crabgrass; [4]) | Morningglory plant response rating (morningglory; [4]) | Morningglory plant response rating (morningglory; [3]) | Redroot pigweed plant response rating (pigweed; [4])
4: Giant foxtail plant response rating (giant foxtail; [3])
0: Bedstraw plant response rating (bedstraw; [1]) | Bedstraw plant response rating (bedstraw; [2]) | Bedstraw plant response rating (bedstraw; [3]) | Blackgrass plant response rating (blackgrass; [1]) | Plant response rating, Blackgrass (blackgrass; [5]) | Plant response rating, Blackgrass (blackgrass; [6]) | Plant response rating, Blackgrass (blackgrass; [7]) | Blackgrass plant response rating (blackgrass; [2]) | Blackgrass plant response rating (blackgrass; [3]) | B. signalgrass plant response rating (surinam grass; [1]) | B. signalgrass plant response rating (surinam grass; [4]) | Plant response rating, B. signalgrass (surinam grass; [5]) | Plant response rating, B. signalgrass (surinam grass; [6]) | Plant response rating, B. signalgrass (surinam grass; [7]) | B. signalgrass plant response rating (surinam grass; [2]) | B. signalgrass plant response rating (surinam grass; [3]) | Plant response rating, B. signalgrass (surinam grass; [8]) | Cocklebur plant response rating (cocklebur; [1]) | Plant response rating, Cocklebur (cocklebur; [5]) | Plant response rating, Cocklebur (cocklebur; [6]) | Plant response rating, Cocklebur (cocklebur; [7]) | Cocklebur plant response rating (cocklebur; [2]) | Cocklebur plant response rating (cocklebur; [3]) | Plant response rating, Cocklebur (cocklebur; [8]) | Corn plant response rating (corn; [1]) | Corn plant response rating (corn; [4]) | Plant response rating, Corn (corn; [5]) | Plant response rating, Corn (corn; [6]) | Plant response rating, Corn (corn; [7]) | Corn plant response rating (corn; [2]) | Corn plant response rating (corn; [3]) | Crabgrass plant response rating (crabgrass; [1]) | Plant response rating, Crabgrass (crabgrass; [5]) | Plant response rating, Crabgrass (crabgrass; [6]) | Crabgrass plant response rating (crabgrass; [2]) | Giant foxtail plant response rating (giant foxtail; [1]) | Plant response rating, Giant foxtail (giant foxtail; [5]) | Giant foxtail plant response rating (giant foxtail; [2]) | Morningglory plant response rating (morningglory; [1]) | Plant response rating, Morningglory (morningglory; [5]) | Plant response rating, Morningglory (morningglory; [7]) | Morningglory plant response rating (morningglory; [2]) | Plant response rating, Morningglory (morningglory; [8]) | Redroot pigweed plant response rating (pigweed; [1]) | Plant response rating, Redroot pigweed (pigweed; [5]) | Redroot pigweed plant response rating (pigweed; [2]) | Redroot pigweed plant response rating (pigweed; [3]) | Rape plant response rating (rape; [1]) | Rape plant response rating (rape; [4]) | Plant response rating, Rape (rape; [5]) | Plant response rating, Rape (rape; [7]) | Rape plant response rating (rape; [2]) | Rape plant response rating (rape; [3]) | Plant response rating, Rape (rape; [8]) | Soybean plant response rating (soybean; [1]) | Plant response rating, Soybean (soybean; [5]) | Plant response rating, Soybean (soybean; [7]) | Plant response rating, Soybean (soybean; [8]) | Sugarbeets plant response rating (sugar beet; [1]) | Plant response rating, Sugarbeets (sugar beet; [5]) | Plant response rating, Sugarbeets (sugar beet; [7]) | Sugarbeets plant response rating (sugar beet; [2]) | Sugarbeets plant response rating (sugar beet; [3]) | Plant response rating, Sugarbeets (sugar beet; [8]) | Velvetleaf plant response rating (velvetleaf; [1]) | Plant response rating, Velvetleaf (velvetleaf; [5]) | Plant response rating, Velvetleaf (velvetleaf; [7]) | Velvetleaf plant response rating (velvetleaf; [2]) | Velvetleaf plant response rating (velvetleaf; [3]) | Plant response rating, Velvetleaf (velvetleaf; [8]) | Wheat plant response rating (wheat; [1]) | Plant response rating, Wheat (wheat; [5]) | Plant response rating, Wheat (wheat; [7]) | Wheat plant response rating (wheat; [2]) | Wheat plant response rating (wheat; [3]) | Plant response rating, Wheat (wheat; [8]) | Wild oats plant response rating (wild oat; [1]) | Plant response rating, Wild oats (wild oat; [5]) | Plant response rating, Wild oats (wild oat; [7]) | Wild oats plant response rating (wild oat; [2]) | Wild oats plant response rating (wild oat; [3]) | Plant response rating, Wild oats (wild oat; [8]) | Nutsedge plant response rating (purple nutsedge; [1]) | Nutsedge plant response rating (purple nutsedge; [4]) | Plant response rating, Nutsedge (purple nutsedge; [5]) | Plant response rating, Nutsedge (purple nutsedge; [7]) | Nutsedge plant response rating (purple nutsedge; [2]) | Nutsedge plant response rating (purple nutsedge; [3]) | Rice plant response rating (rice; [9]) | Rice plant response rating (0 to 10 scale, 0 is no effect, 10 is complete control) (rice; [10]) | Rice plant response rating (rice; [11]) | Rice plant response rating (rice; [12]) | S. Flatsedge plant response rating (smallflower flatsedge; [9]) | S. Flatsedge plant response rating (0 to 10 scale, 0 is no effect, 10 is complete control) (smallflower flatsedge; [10]) | S. Flatsedge plant response rating (smallflower flatsedge; [11]) | S. Flatsedge plant response rating (smallflower flatsedge; [12]) | Ducksalad plant response rating (duck salad; [9]) | Ducksalad plant response rating (0 to 10 scale, 0 is no effect, 10 is complete control) (duck salad; [10]) | Ducksalad plant response rating (duck salad; [11]) | Ducksalad plant response rating (duck salad; [12]) | Barnyardgrass plant response rating (bamyardgrass; [9]) | Barnyardgrass plant response rating (0 to 10 scale, 0 is no effect, 10 is complete control) (bamyardgrass; [10]) | Barnyardgrass plant response rating (bamyardgrass; [11]) | Barnyardgrass plant response rating (bamyardgrass; [12])
5: Plant response rating, Blackgrass (blackgrass; [8]) | Giant foxtail plant response rating (giant foxtail; [4])
1: Blackgrass plant response rating (blackgrass; [4]) | Cocklebur plant response rating (cocklebur; [4]) | Plant response rating, Crabgrass (crabgrass; [7]) | Plant response rating, Redroot pigweed (pigweed; [7]) | Soybean plant response rating (soybean; [2]) | Soybean plant response rating (soybean; [3])

CC(C)N(C(=O)n1oc(=O)n(CC2=NOCC2)c1=O)c1ccccc1 [Compound 706]
0: Bedstraw plant response rating (bedstraw; [13]) | Plant response rating, Bedstraw (bedstraw; [5]) | Bedstraw plant response rating (bedstraw; [14]) | Cocklebur plant response rating (cocklebur; [13]) | Plant response rating, Cocklebur (cocklebur; [5]) | Cocklebur plant response rating (cocklebur; [14]) | Plant response rating, Cocklebur (cocklebur; [7]) | Corn plant response rating (corn; [13]) | Plant response rating, Corn (corn; [5]) | Corn plant response rating (corn; [14]) | Rape plant response rating (rape; [13]) | Plant response rating, Rape (rape; [5]) | Soybean plant response rating (soybean; [13]) | Plant response rating, Soybean (soybean; [5]) | Soybean plant response rating (soybean; [14]) | Sugarbeets plant response rating (sugar beet; [13]) | Velvetleaf plant response rating (velvetleaf; [13]) | Wheat plant response rating (wheat; [13]) | Nutsedge plant response rating (purple nutsedge; [13]) | Nutsedge plant response rating (purple nutsedge; [14]) | Rice plant response rating (rice; [15]) | Rice plant response rating (rice; [16]) | Rice plant response rating (rice; [11]) | Rice plant response rating (rice; [12]) | S. Flatsedge plant response rating (smallflower flatsedge; [15]) | S. Flatsedge plant response rating (smallflower flatsedge; [16]) | S. Flatsedge plant response rating (smallflower flatsedge; [11]) | S. Flatsedge plant response rating (smallflower flatsedge; [12]) | Ducksalad plant response rating (duck salad; [15]) | Ducksalad plant response rating (duck salad; [16]) | Ducksalad plant response rating (duck salad; [11]) | Ducksalad plant response rating (duck salad; [12]) | Barnyardgrass plant response rating (bamyardgrass; [15]) | Barnyardgrass plant response rating (bamyardgrass; [16]) | Barnyardgrass plant response rating (bamyardgrass; [11]) | Barnyardgrass plant response rating (bamyardgrass; [12])
7: Giant foxtail plant response rating (giant foxtail; [14]) | Plant response rating, Wild oats (wild oat; [5])
10: Blackgrass plant response rating (blackgrass; [14]) | Plant response rating, Blackgrass (blackgrass; [7]) | Plant response rating, B. signalgrass (surinam grass; [7]) | Redroot pigweed plant response rating (pigweed; [14])
6: Giant foxtail plant response rating (giant foxtail; [13]) | Plant response rating, Giant foxtail (giant foxtail; [5])
3: Rape plant response rating (rape; [14])
4: Plant response rating, Sugarbeets (sugar beet; [5]) | Sugarbeets plant response rating (sugar beet; [14]) | Plant response rating, Wheat (wheat; [5]) | Wild oats plant response rating (wild oat; [13])
2: B. signalgrass plant response rating (surinam grass; [13])
1: Morningglory plant response rating (morningglory; [13]) | Plant response rating, Morningglory (morningglory; [5]) | Morningglory plant response rating (morningglory; [14]) | Plant response rating, Velvetleaf (velvetleaf; [5])
5: Crabgrass plant response rating (crabgrass; [13]) | Plant response rating, Crabgrass (crabgrass; [5]) | Velvetleaf plant response rating (velvetleaf; [14]) | Wheat plant response rating (wheat; [14])
8: Blackgrass plant response rating (blackgrass; [13]) | Plant response rating, Blackgrass (blackgrass; [5]) | Plant response rating, B. signalgrass (surinam grass; [5]) | B. signalgrass plant response rating (surinam grass; [14]) | Crabgrass plant response rating (crabgrass; [14]) | Redroot pigweed plant response rating (pigweed; [13]) | Plant response rating, Redroot pigweed (pigweed; [5]) | Wild oats plant response rating (wild oat; [14])
